Measured values from PubChem BioAssay (NCI).
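A five-concentration, 48-hour dose response in 96-well plates underlies each endpoint, interpolated linearly between surrounding concentrations. GI50 is the concentration that inhibits growth by half. TGI marks complete inhibition of growth.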

Columns and labels:
Assay in all cases: DTP human tumour cell line panel, 48 h
UACC-257 melanoma = tested on: UACC-257 melanoma
RPMI-8226 leukemia = tested on: RPMI-8226 leukemia
SK-MEL-28 melanoma = tested on: SK-MEL-28 melanoma
SNB-19 CNS = tested on: SNB-19 CNS
MOLT-4 leukemia = tested on: MOLT-4 leukemia
OVCAR-4 ovarian = tested on: OVCAR-4 ovarian
SK-MEL-5 melanoma = tested on: SK-MEL-5 melanoma
NCI-H460 lung = tested on: NCI-H460 lung
IGROV1 ovarian = tested on: IGROV1 ovarian
HT29 colon = tested on: HT29 colon

SMILES	GI50 (UACC-257 melanoma) [µM]	TGI (UACC-257 melanoma) [µM]	GI50 (RPMI-8226 leukemia) [µM]	TGI (RPMI-8226 leukemia) [µM]	GI50 (SK-MEL-28 melanoma) [µM]	TGI (SK-MEL-28 melanoma) [µM]	GI50 (SNB-19 CNS) [µM]	TGI (SNB-19 CNS) [µM]	GI50 (MOLT-4 leukemia) [µM]	TGI (MOLT-4 leukemia) [µM]	GI50 (OVCAR-4 ovarian) [µM]	TGI (OVCAR-4 ovarian) [µM]	GI50 (SK-MEL-5 melanoma) [µM]	TGI (SK-MEL-5 melanoma) [µM]	GI50 (NCI-H460 lung) [µM]	TGI (NCI-H460 lung) [µM]	GI50 (IGROV1 ovarian) [µM]	TGI (IGROV1 ovarian) [µM]	GI50 (HT29 colon) [µM]	TGI (HT29 colon) [µM]
Cc1cccc2c1O/C(=C\c1ccc([N+](=O)[O-])o1)C2=O	1.42	2.91	0.32	1.8	1.53	3.05	2.7	> 33	1.52	5.7	2.06	8.06	1.14	2.42	0.817	2.5	1.54	5.39	0.324	1.27
COc1ccc(/C=C(/C)[N+](=O)[O-])cc1		3.08		3.75		8.14		17.9		5.34		10.6		5.92		5.22		6.2		11.9
CCCCCCCCCCCC(=O)c1c(O)cccc1O		30.8		68.5		32		30.4		47.8		37.6		26.7		42.9		32.4		45
NC(=S)N/N=C\c1nccc2c(N)cccc12	0.624	9.44	0.223	> 82.8	1.16	> 100	0.557	> 100	0.235	> 100	0.414	> 100	0.324	4.01	0.303	2.04	0.219		0.454	> 100
CNC(=O)OC1C(O[C@H]2C[C@H]3[C@@H]4CC=C5C[C@@H](O)CC[C@]5(C)[C@H]4CC[C@]3(C)[C@H]2[C@H](C)C(=O)CCC(C)C)OCC(O)C1OC1OCC(O)C(O)C1OC(=O)c1ccc(OC)cc1 (some centres undefined)	0.0237	0.105	< 0.00275	0.0112	0.0123	0.0754	0.0204	3.89	0.00824	0.0242	0.291	7.36	0.026	0.317	0.0115	0.491	0.0224	3.95	0.0631	4.92
C/C1=C/C(=O)O[C@@H]2C[C@@H](CC[C@H](C)/C=C\C=C\CC1)O[C@@](OCCc1ccccc1)([C@@H]1CSC(=O)N1)C2	0.175	17.3	3.28	> 17.5	0.218	0.995	0.12	> 17.5	> 5.2	> 17.5	0.225	> 5.44	0.226	> 6.42	0.27	> 17.5	0.0275	0.074	0.0793	> 15
COc1ccc(/C=C/C(=O)c2cc3c(N)c(C(=O)Nc4ccccc4C)sc3nc2C)cc1	16.1	> 50	1.4	> 25.5	7.14	> 50	1.15	> 50	0.747	> 50	1.42	> 50	0.214	7.58	1.53	> 16.6	0.655	> 50	0.487	> 50
COc1cc(Cl)c2c3c(c(C(=O)c4ccccc4)oc13)CCC2		> 100		> 100		> 100		> 100		> 100		> 100		> 100		> 100		> 100		> 100
CCCCCC(O)(CCCCC)CCCCCCCCC1=C(O)c2[nH]c(=O)ccc2C(=O)C1=O		14.3		25.3		20.7		18.2		55.5		7.06		12.9		24		18.9		30.5
BrC1=CC=C2NCCCCCCN=C3C=CC(Br)=CC=C3NCCCCCCN=C2C=C1		> 25.5		> 25.5		> 25.5		> 25.5		> 25.5		> 25.5		> 25.5		> 25.5		> 25.5		> 25.5
